The text below walks through data of patent US5891877A, “Pharmaceutical compounds” (Xenova Limited, priority 1996, dated 1999).

In one data set the target is PAI-1 (Homo sapiens, UniProt P05121). In words: PAI-1 inhibition in the S2251 chromogenic substrate assay (PAI functional assay). It is filed as biochemical. The note with it: Table 1, second part; for INHIBITION OF PAI-1 (degree of inhibition): unit assumed; for IC50: PAI-1, S2251 assay; for inhibition at 20 µM: read-out: INHIBITION OF PAI-1 (degree of inhibition). A digest of the protocol: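 Compound preincubated with PAI-1, then added to a tPA/plasminogen system; residual tPA activity converts plasminogen to plasmin.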

Data set [1] has as its system cytotoxicity of vincristine. Particulars: J. Antibiotics vol XLIII No. 8, 1018-1020; cited from earlier work.

As a reminder, the IC50 is the concentration at which inhibition is half-maximal. Low readings indicate higher potency, high ones lower potency. One may read the inhibition as the relative decrease from the control value, in per cent.

Each structure is given as a SMILES string. Where a name gives a salt, the structure may show the parent alone.

Chain of PAI-1 (P05121 24-402): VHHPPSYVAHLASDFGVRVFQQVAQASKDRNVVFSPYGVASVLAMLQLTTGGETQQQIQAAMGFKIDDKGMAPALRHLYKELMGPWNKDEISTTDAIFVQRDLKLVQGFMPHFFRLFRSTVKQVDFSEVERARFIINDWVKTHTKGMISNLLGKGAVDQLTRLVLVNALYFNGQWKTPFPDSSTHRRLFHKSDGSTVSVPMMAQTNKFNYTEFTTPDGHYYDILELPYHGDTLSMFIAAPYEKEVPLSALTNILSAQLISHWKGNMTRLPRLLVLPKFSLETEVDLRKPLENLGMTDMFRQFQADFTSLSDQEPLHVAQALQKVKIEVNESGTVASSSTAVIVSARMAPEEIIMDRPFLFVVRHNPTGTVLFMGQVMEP

Consider `CN(C)CCCOc1ccc(/C=c2\[nH]c(=O)/c(=C/c3cccc4ccccc34)[nH]c2=O)cc1` [Compound 5200, (3Z,6Z)-6-(4-(3-Dimethylaminopropoxy)benzylidene)-3-(1-Naphthylmethylene)-2,5-piperazinedione], for which the INHIBITION OF PAI-1 (degree of inhibition) on PAI-1 (20 μM) and on PAI-1 (100 μM) was 10% in each case.
For the compound `CN(C)CCCOc1ccc(/C=c2\[nH]c(=O)/c(=C/c3cccc4ccccc34)[nH]c2=O)cc1` [Compound 5205], the INHIBITION OF PAI-1 (degree of inhibition) at PAI-1 (20 μM) worked out at 33%; at PAI-1 (100 μM), 56%. At PAI-1, the IC50 was 100 µM.
Take `CN(C)CCCOc1ccc(/C=c2\[nH]c(=O)/c(=C/c3ccc4ccccc4c3)[nH]c2=O)cc1` [Compound 5206]: the INHIBITION OF PAI-1 (degree of inhibition) came to 78% on PAI-1 (20 μM) and 72% on PAI-1 (100 μM). In addition, at PAI-1, the IC50 amounted to 3 µM.
For the compound `CN(C)CCN(C)c1ccc(/C=c2\[nH]c(=O)/c(=C/c3ccccc3)[nH]c2=O)s1` [Compound 5299, (3Z,6Z)-6-Benzylidene-3-(5-(2-dimethylaminoethyl)methylamino-2-thienylmethylene)-2,5-piperazinedione], the concentration for half-maximal inhibition (IC50) against PAI-1 is 7 µM.
In the case of `CN(C)CCOc1ccc(/C=c2\[nH]c(=O)/c(=C/c3ccccc3)[nH]c2=O)s1` [Compound 5324, (3Z,6Z)-6-Benzylidene-3-(5-(2-dimethylaminoethoxy)-2-thienylmethylene)-2,5-piperazinedione], inhibition against PAI-1 was half-maximal at 9 µM (IC50).
For `CN(C)CCOc1csc(/C=c2\[nH]c(=O)/c(=C/c3ccccc3)[nH]c2=O)c1` [Compound 5327, (3Z,6Z)-6-Benzylidene-3-(4-(2-dimethylaminoethoxy)-2-thienylmethylene)-2,5-piperazinedione], the inhibition at 20 µM on PAI-1 (20 μM) was 17%.
Turning to `CN(C)CCc1ccc(/C=c2\[nH]c(=O)/c(=C/c3ccccc3)[nH]c2=O)s1` [Compound 5335, (3Z,6Z)-6-Benzylidene-3-(5-(2-dimethylaminoethyl)-2-thienylmethylene)-2,5-piperazinedione], on PAI-1, inhibition was half-maximal at 22 µM (IC50).
On PAI-1, `CN(C)CCCOc1ccc(/C=c2\[nH]c(=O)/c(=C/c3ccc(C(=O)N4CCc5ccccc5C4)cc3)[nH]c2=O)cc1` [Compound 5367] displayed an IC50 of 18 µM.
`O=C(NCCCCN1CCc2ccccc2C1)c1ccc(/C=c2\[nH]c(=O)/c(=C/c3ccccc3)[nH]c2=O)cc1` [Compound 5371, N-(4-(1,2,3,4-Tetrahydro-2-isoquinolyl)butyl)-4-((3Z,6Z)-6-benzylidene-2,5-dioxo-3-piperazinylidene)methylbenzamide] returned an IC50 at PAI-1 of 12 µM.
`CN(C)CCCOc1ccc(/C=c2\[nH]c(=O)/c(=C/c3ccc(C(=O)N4CCc5ccccc5C4)cc3)[nH]c2=O)cc1` [Compound 5376]: at PAI-1, half-maximal inhibition (IC50) was put at 12 µM. This counts as double-digit micromolar.
On to `O=C(NCCCCN1CCc2ccccc2C1)c1ccc(/C=c2\[nH]c(=O)/c(=C/c3ccccc3)[nH]c2=O)cc1` [Compound 5379], for which the inhibition at 20 µM at PAI-1 (20 μM) came to 65%. The same compound showed a 50% inhibitory concentration (IC50) against PAI-1 of 15 µM.
On PAI-1, `CN(C)CCCOc1ccc(/C=c2\[nH]c(=O)/c(=C/c3ccc(C(=O)NCCN4CCc5ccccc5C4)cc3)[nH]c2=O)cc1` [Compound 5386, N-(2-(1,2,3,4-Tetrahydro-2-isoquinolyl)ethyl)-4-((3Z,6Z)-6-(4-(3-dimethylaminopropoxy)benzylidene)-2,5-dioxo-3-piperazinylidene)methylbenzamide] showed an IC50 of 18 µM.
Consider `CN(C)CCOCCOc1ccc(/C=c2\[nH]c(=O)/c(=C/c3ccccc3)[nH]c2=O)s1` [Compound 5388, (3Z,6Z)-6-Benzylidene-3-(5-(2-(2-dimethylaminoethoxy)ethoxy)-2-thienylmethylene)-2,5-piperazinedione], for which, at PAI-1 (20 μM), the inhibition at 20 µM is 58%. The same compound showed a 50% inhibitory concentration (IC50) against PAI-1 of 9 µM.
As for `CN(C)CCOCCOc1ccc(/C=c2\[nH]c(=O)/c(=C/c3ccccc3)[nH]c2=O)s1` [Compound 5388.HCl], at PAI-1 (20 μM), the INHIBITION OF PAI-1 (degree of inhibition) was 60%. In addition, on PAI-1, the IC50 amounted to 12 µM.
As to `CN(C)CCCCCCOc1ccc(/C=c2\[nH]c(=O)/c(=C/c3ccccc3)[nH]c2=O)s1` [Compound 5389, (3Z,6Z)-6-Benzylidene-3-(5-(6-dimethylaminohexyloxy)-2-thienylmethylene)-2,5-piperazinedione], the inhibition at 20 µM on PAI-1 (20 μM) worked out at 55%. At PAI-1, this compound yielded a 50% inhibitory concentration (IC50) of 2.5 µM.
`CN(C)CCCCCCOc1ccc(/C=c2\[nH]c(=O)/c(=C/c3ccccc3)[nH]c2=O)s1` [Compound 5389.HCl]: the INHIBITION OF PAI-1 (degree of inhibition) on PAI-1 (20 μM) turned out to be 57%.
In the case of `O=C(NCCN1CCc2ccccc2C1)c1ccc(/C=c2\[nH]c(=O)/c(=C/c3ccccc3)[nH]c2=O)cc1` [Compound 5391, N-(2-(1,2,3,4-Tetrahydro-2-isoquinolyl)ethyl)-4-((3Z,6Z)-6-benzylidene-2,5-dioxo-3-piperazinylidene)methylbenzamide], the INHIBITION OF PAI-1 (degree of inhibition) at PAI-1 (20 μM) came out at 64%. This compound also yielded a 50% inhibitory concentration (IC50) at PAI-1 of 6.5 µM.
On the same counts, the results for `O=C(NCCN1CCc2ccccc2C1)c1ccc(/C=c2\[nH]c(=O)/c(=C/c3ccccc3)[nH]c2=O)cc1` [Compound 5391.HCl] are 100% and 3.5 µM.
Take `COc1cc2c(cc1OC)CN(CCc1ccc(NC(=O)c3ccc(/C=c4\[nH]c(=O)/c(=C/c5ccccc5)[nH]c4=O)cc3)cc1)CC2` [Compound 5393.HCl]: at PAI-1 (20 μM), the INHIBITION OF PAI-1 (degree of inhibition) was found to be 58%. This compound yielded an IC50 at PAI-1 of 20 µM.
For `COc1cc2c(cc1OC)CN(CCc1ccc(NC(=O)c3ccc(/C=c4\[nH]c(=O)/c(=C/c5ccccc5)[nH]c4=O)cc3)cc1)CC2` [Compound 5393], the inhibition at 20 µM on PAI-1 (20 μM) turned out to be 76%. The same compound yielded an IC50 on PAI-1 of 14 µM.
Take `O=C(NCCCN1CCc2ccccc2C1)c1ccc(/C=c2\[nH]c(=O)/c(=C/c3ccccc3)[nH]c2=O)cc1` [Compound 5394, N-(3-(1,2,3,4-Tetrahydro-2-isoquinolyl)propyl)-4-((3Z,6Z)-6-benzylidene-2,5-dioxo-3-piperazinylidene)methylbenzamide]: the inhibition at 20 µM at PAI-1 (20 μM) came to 59%. The midpoint of inhibition on PAI-1, the IC50, lay at 16 µM.
For `O=C(NCCCN1CCc2ccccc2C1)c1ccc(/C=c2\[nH]c(=O)/c(=C/c3ccccc3)[nH]c2=O)cc1` [Compound 5394.HCl], the INHIBITION OF PAI-1 (degree of inhibition) at PAI-1 (20 μM) was found to be 62%. For the same compound, on PAI-1, the half-maximal inhibitory concentration (IC50) was 17 µM.
`CN(C)CCCOc1ccc(/C=c2\[nH]c(=O)/c(=C/c3ccc(C(=O)NCCCCN4CCc5ccccc5C4)cc3)[nH]c2=O)cc1` [Compound 5397, N-(4-(1,2,3,4-Tetrahydro-2-isoquinolyl)butyl)-4-((3Z,6Z)-6-(4-(3-dimethylaminopropoxy)benzylidene)-2,5-dioxo-3-piperazinylidene)methylbenzamide] yielded an INHIBITION OF PAI-1 (degree of inhibition) on PAI-1 (20 μM) of 42%.
As for `CN(C)CCCOc1ccc(/C=c2\[nH]c(=O)/c(=C/c3ccc(C(=O)NCCCCN4CCc5ccccc5C4)cc3)[nH]c2=O)cc1` [Compound 5397.HCl], the INHIBITION OF PAI-1 (degree of inhibition) on PAI-1 (20 μM) turned out to be 21%.
With `COc1cc2c(cc1OC)CN(CCc1ccc(NC(=O)c3ccc(/C=c4\[nH]c(=O)/c(=C/c5ccc([N+](=O)[O-])cc5)[nH]c4=O)cc3)cc1)CC2` [Compound 5402], the inhibition at 20 µM on PAI-1 (20 μM) worked out at 37%.
For `Cn1c(=O)/c(=C/c2ccccc2)[nH]c(=O)/c1=C/c1ccccc1` [piperafizine A], the “utility as potentiators of the cytotoxicity of vincristine” value in data set [1] is reported as “potentiators of the cytotoxicity of vincristine”.
For `O=c1[nH]/c(=C\c2ccccc2)c(=O)[nH]/c1=C\c1ccccc1` [piperafizine B], the “utility as potentiators of the cytotoxicity of vincristine” value in data set [1] was “potentiators of the cytotoxicity of vincristine”.
